# Measurements from patent US12577217B2, “15-PGDH inhibitor” (KYORIN Pharmaceutical Co., Ltd., priority 2019, dated 2026).
# Biological target: T1, recombinant human 15-PGDH (Homo sapiens, UniProt P15428)
# T1 construct: purchased R&D Systems
# T1 sequence (P15428 1-266): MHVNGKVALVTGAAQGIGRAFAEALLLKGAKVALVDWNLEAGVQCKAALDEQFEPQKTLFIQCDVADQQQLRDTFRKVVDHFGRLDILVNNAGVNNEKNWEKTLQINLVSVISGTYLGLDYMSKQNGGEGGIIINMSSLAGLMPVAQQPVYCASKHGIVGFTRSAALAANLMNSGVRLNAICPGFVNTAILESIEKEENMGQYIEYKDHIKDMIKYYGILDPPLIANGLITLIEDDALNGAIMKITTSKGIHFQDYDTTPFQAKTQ
# Test: 15-PGDH enzyme inhibition test
# Type: biochemical
# Conditions: 4 nM recombinant human 15-PGDH, 30 μM PGE2, 1 mM NAD+, 60 minutes after starting the reaction; read-out: IC50 Value
# Procedure, shortened: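 4 nM recombinant human enzyme pre-incubated with compound 12 min at room temperature in 50 mM Tris-HCl pH 8.0 with 0.01% Tween 20 and 0.01% bovine gamma globulin. Reaction started with 30 μM PGE2 and 1 mM NAD+, read after 60 min by fluorescence (ex 340/em 440 nm). IC50 from concentration-response curve.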
row,IC50 [nM],Structure (SMILES)
1,< 10,CCCn1nc2cc(N3CCCc4cc(C(=O)N5CCCCC5)cnc43)ccn2c1=O [Example 1-202]
2,< 10,CCCCn1nc2cc(N3CCCc4cc(C(=O)N5CCCCC5)cnc43)ccn2c1=O [Example 1-203]
3,< 10,CNC(=O)c1ccc(N2CCCc3cc(C(=O)N4CCCCC4)cnc32)cc1 [Example 1-204]
4,< 10,COC(=O)c1ccc(N2CCCc3cc(C(=O)N4CCCCC4)cnc32)cc1 [Example 1-205]
5,10 to 100,CNC(=O)c1ccc(N2CCCc3cc(C(=O)N4CCCCC4)cnc32)cc1C [Example 1-207]
6,< 10,N#Cc1ccc(N2CCCc3cc(C(=O)N4CCCCC4)cnc32)cc1 [Example 1-209]
7,< 10,CNC(=O)c1ccc(N2CCCc3cc(C(=O)N4CCCCC4)cnc32)cn1 [Example 1-210]
8,10 to 100,O=C(c1cnc2c(c1)CCCN2c1ccc(Cl)cc1)N1CCCCC1 [Example 1-211]
9,10 to 100,O=C(O)c1ccccc1N1CCCc2cc(C(=O)N3CCCCC3)cnc21 [Example 1-212]
10,< 10,O=C(c1cnc2c(c1)CCCN2c1ccc2c(c1)CN(C1CC1)C2=O)N1CCC(F)(F)CC1 [Example 1-213]
11,10 to 100,O=C(c1cnc2c(c1)CCCN2c1ccc(F)cc1)N1CCCCC1 [Example 1-214]
12,< 10,CCCn1nc2cc(N3CCOc4cc(C(=O)N5CCCCC5)cnc43)ccn2c1=O [Example 1-215]
13,< 10,CCCCn1nc2cc(N3CCOc4cc(C(=O)N5CCCCC5)cnc43)ccn2c1=O [Example 1-216]
14,< 10,Cn1ccc2cc(N3CCOc4cc(C(=O)N5CCCCC5)cnc43)ccc2c1=O [Example 1-217]
15,< 10,Cn1ncc2cc(N3CCOc4cc(C(=O)N5CCCCC5)cnc43)ccc2c1=O [Example 1-218]
16,< 10,O=C(c1cnc2c(c1)OCCN2c1ccc2c(=O)[nH]ccc2c1)N1CCCCC1 [Example 1-219]
17,< 10,CCCN1Cc2cc(N3CCOc4cc(C(=O)N5CCCCC5)cnc43)ccc2C1=O [Example 1-222]
18,< 10,CCCCN1Cc2cc(N3CCOc4cc(C(=O)N5CCCCC5)cnc43)ccc2C1=O [Example 1-223]
19,< 10,O=C(c1cnc2c(c1)OCCN2c1ccc2c(c1)CN(C1CC1)C2=O)N1CCCCC1 [Example 1-224]
20,10 to 100,CN1Cc2ccc(N3CCOc4cc(C(=O)N5CCCCC5)cnc43)cc2C1=O [Example 1-225]
21,< 10,Cn1cnc2cc(N3CCOc4cc(C(=O)N5CCC(F)(F)CC5)cnc43)ccc2c1=O [Example 1-226]

row,IC50 [nM],Structure (SMILES)
1,< 10,O=C(c1cnc2c(c1)OCCN2c1ccc2c(c1)CN(C1CC1)C2=O)N1CCC(F)(F)CC1 [Example 1-227]
2,> 100,CN1CCN(c2ccccc2)c2ncc(C(=O)N3CCCCC3)cc21 [Example 1-228]
3,10 to 100,COc1cc(N2CCOc3cc(C(=O)N4CCCCC4)cnc32)cc2nn(C)c(=O)n12 [Example 1-230]
4,10 to 100,O=C(c1cnc2c(c1)OCCN2c1ccccc1)N1CCCCC1 [Example 1-232]
5,10 to 100,O=C(c1cnc2c(c1)OCCN2c1ccncc1)N1CCCCC1 [Example 1-233]
6,10 to 100,O=C(c1cnc2c(c1)OCCN2c1cccnc1)N1CCCCC1 [Example 1-234]
7,> 100,O=C(c1cnc2c(c1)OCCN2c1ccccn1)N1CCCCC1 [Example 1-235]
8,> 100,O=C(c1cnc2c(c1)OCCN2c1ccc(F)cc1)N1CCCCC1 [Example 1-236]
9,< 10,O=C(c1cnc2c(c1)OCCN2c1cccc(F)c1)N1CCCCC1 [Example 1-237]
10,> 100,O=C(c1cnc2c(c1)OCCN2c1ccccc1F)N1CCCCC1 [Example 1-238]
11,10 to 100,O=C(c1cnc2c(c1)OCCN2c1ccc(F)c(F)c1)N1CCCCC1 [Example 1-239]
12,10 to 100,CS(=O)(=O)c1ccc(N2CCOc3cc(C(=O)N4CCCCC4)cnc32)cc1 [Example 1-240]
13,< 10,N#Cc1ccc(N2CCOc3cc(C(=O)N4CCCCC4)cnc32)cc1 [Example 1-241]
14,10 to 100,O=C(c1cnc2c(c1)OCCN2c1ccc(C(F)(F)F)cc1)N1CCCCC1 [Example 1-242]
15,10 to 100,O=C(c1cnc2c(c1)OCCN2c1ccc(Br)cc1)N1CCCCC1 [Example 1-243]
16,10 to 100,CCc1ccc(N2CCOc3cc(C(=O)N4CCCCC4)cnc32)cc1 [Example 1-244]
17,10 to 100,COc1ccc(N2CCOc3cc(C(=O)N4CCCCC4)cnc32)cc1 [Example 1-245]
18,> 100,CC(C)(N)c1ccc(N2CCOc3cc(C(=O)N4CCCCC4)cnc32)cc1 [Example 1-246]
19,> 100,COC(=O)C(C)(C)c1ccc(N2CCOc3cc(C(=O)N4CCCCC4)cnc32)cc1 [Example 1-247]
20,> 100,CN1C(=O)C(C)(C)c2ccc(N3CCOc4cc(C(=O)N5CCCCC5)cnc43)cc21 [Example 1-248]
21,> 100,CN1C(=O)C(C)(C)c2cc(N3CCOc4cc(C(=O)N5CCCCC5)cnc43)ccc21 [Example 1-249]

row,IC50 [nM],Structure (SMILES)
1,< 10,Cn1nnnc1-c1ccc(N2CCOc3cc(C(=O)N4CCCCC4)cnc32)cc1 [Example 1-251]
2,< 10,Cn1nnc(-c2ccc(N3CCOc4cc(C(=O)N5CCCCC5)cnc43)cc2)n1 [Example 1-252]
3,10 to 100,O=C(c1cnc2c(c1)OCCN2c1cccc(Cl)c1)N1CCCCC1 [Example 1-253]
4,10 to 100,CS(=O)(=O)c1ccc(N2CCOc3cc(C(=O)N4CCCCC4)cnc32)cc1Cl [Example 1-254]
5,10 to 100,COc1cc(N2CCOc3cc(C(=O)N4CCCCC4)cnc32)ccc1S(C)(=O)=O [Example 1-255]
6,< 10,O=C(c1cnc2c(c1)OCCN2c1ccc2cccnc2c1)N1CCCCC1 [Example 1-257]
7,< 10,O=C(c1cnc2c(c1)OCCN2c1ccc2nccnc2c1)N1CCCCC1 [Example 1-258]
8,< 10,O=C(c1cnc2c(c1)OCCN2c1ccc2cnccc2c1)N1CCCCC1 [Example 1-259]
9,< 10,O=C(c1cnc2c(c1)OCCN2c1ccc2ccncc2c1)N1CCCCC1 [Example 1-260]
10,< 10,COC(=O)c1ccc(N2CCOc3cc(C(=O)N4CCCCC4)cnc32)cc1 [Example 1-261]
11,< 10,COC(=O)c1cccc(N2CCOc3cc(C(=O)N4CCCCC4)cnc32)c1 [Example 1-262]
12,> 100,COC(=O)c1ccccc1N1CCOc2cc(C(=O)N3CCCCC3)cnc21 [Example 1-263]
13,< 10,CCOC(=O)c1ccc(N2CCOc3cc(C(=O)N4CCCCC4)cnc32)s1 [Example 1-264]
14,< 10,Cn1nc2cc(N3CCOc4c3ccc(C(=O)N3CCCCC3)c4Cl)ccn2c1=O [Example 1-265]
15,10 to 100,COCCN1Cc2cc(N3CCOc4cc(C(=O)N5CCC(F)(F)CC5)cnc43)ncc2C1=O [Example 1-266]
16,< 10,Cn1ccc2cc(N3CCOc4cc(C(=O)N5CCC(F)(F)CC5)cnc43)ccc2c1=O [Example 1-267]
17,< 10,CCOCn1nc2cc(N3CCOc4cc(C(=O)N5CCCCC5)cnc43)ccn2c1=O [Example 1-268]
18,< 10,CCOCCn1nc2cc(N3CCOc4cc(C(=O)N5CCCCC5)cnc43)ccn2c1=O [Example 1-269]
19,> 100,Cn1nc2cc(N3CCOc4cc(C(=O)N5CCCCC5)cnc43)c(Cl)cn2c1=O [Example 1-270]
